In brackets after ≈: the same amount, converted by molar mass. Activity calls are given as the source filed them. No cut-off for these calls is given here.
Tests used:
[1] = test system: Saccharomyces cerevisiae; assay: Inhibition of Saccharomyces cerevisiae DNA topoisomerase 2 assessed as decrease in relaxation of supercoiled DNA using supercoiled pBR322 plasmid DNA at 100 to 150 uM gel electrophoresis method; conditions: dose 100-150 µM
[2] = test system: Candida albicans; assay: Antifungal activity against Candida albicans ATCC 10231 assessed as reduction in microbial growth; format: functional
[3] = test system: Saccharomyces cerevisiae; assay: Antifungal activity against Saccharomyces cerevisiae ATCC 9763 assessed as reduction in microbial growth; format: functional
[4] = test system: Candida albicans; assay: Antifungal activity against fluconazole-resistant Candida albicans B4 assessed as reduction in microbial growth; format: functional
[5] = test system: Pichia kudriavzevii; assay: Fungicidal activity against Candida krusei DSM 6128; format: functional
[6] = test system: Candida albicans; assay: Antifungal activity against fluconazole-sensitive Candida albicans B3 assessed as reduction in microbial growth; format: functional
[7] = test system: Pichia kudriavzevii; assay: Antifungal activity against Candida krusei ATCC 6258 assessed as reduction in microbial growth; format: functional
[8] = test system: Candida albicans; assay: Antifungal activity against fluconazole-sensitive Candida albicans Gu4 assessed as reduction in microbial growth; format: functional
[9] = test system: Saccharomyces cerevisiae; assay: Fungicidal activity against Saccharomyces cerevisiae ATCC 9763; format: functional
[10] = test system: Candida albicans; assay: Fungicidal activity against Candida albicans ATCC 10231; format: functional
[11] = test system: Candida albicans; assay: Antibiofilm activity against Candida albicans ATCC 10231 at concentration of 0.25 MIC by XTT assay; format: functional, organism-based
[12] = test system: Candida albicans; assay: Antifungal activity against fluconazole-resistant Candida albicans F5 assessed as reduction in microbial growth; format: functional
[13] = test system: Saccharomyces cerevisiae; assay: Inhibition of Saccharomyces cerevisiae DNA topoisomerase 2 assessed as decrease in relaxation of supercoiled DNA using supercoiled pBR322 plasmid DNA at 1 to 200 uM gel electrophoresis method; conditions: dose 1-200 µM
[14] = test system: Nakaseomyces glabratus; assay: Antifungal activity against Candida glabrata ATCC 90030 assessed as reduction in microbial growth; format: functional
[15] = test system: Candida albicans; assay: Antifungal activity against fluconazole-sensitive Candida albicans F2 assessed as reduction in microbial growth; format: functional
[16] = Ratio of MFC for fungicidal activity against Saccharomyces cerevisiae ATCC 9763 to MIC for antifungal activity against Saccharomyces cerevisiae ATCC 9763; format: functional
[17] = test system: Nakaseomyces glabratus; assay: Fungicidal activity against Candida glabrata DSM 11226; format: functional
[18] = test system: Candida parapsilosis; assay: Antifungal activity against Candida parapsilosis ATCC 22019 assessed as reduction in microbial growth; format: functional; conditions: Lodderomyces parapsilosis
[19] = test system: Candida albicans; assay: Antifungal activity against fluconazole-resistant Candida albicans Gu5 assessed as reduction in microbial growth; format: functional
[20] = test system: Candida albicans; assay: Growth inhibition of Candida albicans ATCC 10231 assessed as reduction in yeast to mycelium formation by measuring reduction in hyphal growth at concentration of 0.25 MIC after 3 hrs in YPG medium by light microscopic method relative to control; format: functional, organism-based
[21] = test system: Escherichia coli; assay: Antibacterial activity against Escherichia coli ATCC 10536 assessed as reduction in microbial growth incubated for 48 hrs by photometric method; format: functional
[22] = test system: Candida parapsilosis; assay: Fungicidal activity against Candida parapsilosis DSM 5784; format: functional; conditions: Lodderomyces parapsilosis
[23] = test system: Candida albicans; assay: Growth inhibition of Candida albicans ATCC 10231 assessed as reduction in yeast to mycelium formation by measuring reduction in hyphal growth at concentration of 0.25 MIC after 3 hrs in G1cNAc medium by light microscopic method relative to control; format: functional, organism-based
[24] = test system: Candida albicans; assay: Growth inhibition of Candida albicans ATCC 10231 assessed as reduction in yeast to mycelium formation by measuring reduction in hyphal growth at 0.25 MIC after 3 hrs by light microscopic method relative to control; format: functional
[25] = test system: Staphylococcus aureus; assay: Antibacterial activity against Staphylococcus aureus ATCC 9144 assessed as reduction in microbial growth incubated for 48 hrs by photometric method; format: functional
[26] = test system: Candida albicans; assay: Antifungal activity against Candida albicans CNCM 1180-79 assessed as reduction in microbial growth incubated for 72 hrs by photometric method; format: functional
[27] = test system: Candida; assay: Antifungal activity against Candida; format: functional

| SMILES | MIC90 [2] | MIC90 [3] | MIC90 [4] | MIC90 [6] | MIC90 [7] | MIC90 [8] | MFC [9] | Activity [11] | MIC90 [12] | inhibition [13] | MIC90 [14] | MIC90 [15] | Ratio [16] | MFC [17] | MIC90 [18] | MIC90 [19] | further results |
| --- | --- | --- | --- | --- | --- | --- | --- | --- | --- | --- | --- | --- | --- | --- | --- | --- | --- |
| COc1cc(NS(C)(=O)=O)ccc1Nc1c2ccccc2nc2ccccc12 | – | – | – | – | – | – | – | – | – | – | – | – | – | – | – | – | inhibition [1]: Active |
| Cc1ccc([N+](=O)[O-])c2c(NCCOC(=O)[C@@H](N)CCCCN)c3ccccc3nc12 | 4 µg/mL | 1 µg/mL | > 64 µg/mL | 16 µg/mL | 16 µg/mL | 8 µg/mL | 2 µg/mL (≈ 4.7 µM) | inactive | > 64 µg/mL | inactive | 32 µg/mL | 8 µg/mL | >=1 | 64 µg/mL (≈ 150 µM) | 64 µg/mL | > 64 µg/mL | MFC [5]: 32 µg/mL (≈ 75.2 µM); MFC [10]: 16 µg/mL (≈ 37.6 µM) |
| Cc1ccc([N+](=O)[O-])c2c(NCCNCCNCCNc3c4ccccc4nc4c(C)ccc([N+](=O)[O-])c34)c3ccccc3nc12 | > 32 µg/mL | 32 µg/mL | – | – | > 32 µg/mL | – | – | – | – | – | > 32 µg/mL | – | – | – | > 32 µg/mL | – | – |
| O=[N+]([O-])c1cccc2nc3ccccc3c(NCCO)c12 | 2 µg/mL | 0.25 µg/mL | > 64 µg/mL | 2 µg/mL | 8 µg/mL | 4 µg/mL | 0.25 µg/mL (≈ 0.882 µM) | Active | > 64 µg/mL | inactive | 16 µg/mL | 4 µg/mL | >=1 | 32 µg/mL (≈ 113 µM) | 32 µg/mL | 32 µg/mL | growth inhibition (GI) [20]: inactive; MFC [5]: 32 µg/mL (≈ 113 µM); MIC [21]: 50 µg/mL; MFC [22]: 64 µg/mL (≈ 226 µM); growth inhibition (GI) [23]: inactive; growth inhibition (GI) [24]: inactive; MFC [10]: 4 µg/mL (≈ 14.1 µM); MIC [25]: 50 µg/mL; MIC [26]: 50 µg/mL |
| OC(Cn1cncn1)(Cn1cncn1)c1ccc(F)cc1F [FLUCONAZOLE] | 8 µg/mL | – | 16 µg/mL | 1 µg/mL | – | 4 µg/mL | – | – | > 64 µg/mL | – | – | 8 µg/mL | – | – | – | > 64 µg/mL | – |
| CN(CCCNc1c2ccccc2nc2cccc([N+](=O)[O-])c12)CCCNc1c2ccccc2nc2cccc([N+](=O)[O-])c12 | > 16 µg/mL | 4 µg/mL | – | – | > 16 µg/mL | – | 4 µg/mL (≈ 6.78 µM) | – | – | – | > 16 µg/mL | – | >=1 | – | > 16 µg/mL | – | – |
| NCCCC[C@H](N)C(=O)OCCNc1c2ccccc2nc2cccc([N+](=O)[O-])c12 | 4 µg/mL | 0.5 µg/mL | > 64 µg/mL | 4 µg/mL | 16 µg/mL | 4 µg/mL | 1 µg/mL (≈ 2.43 µM) | Active | > 64 µg/mL | inactive | 16 µg/mL | 4 µg/mL | >=1 | 64 µg/mL (≈ 156 µM) | 32 µg/mL | > 64 µg/mL | MFC [5]: 64 µg/mL (≈ 156 µM); MFC [22]: 128 µg/mL (≈ 311 µM); MFC [10]: 16 µg/mL (≈ 38.9 µM) |
| Cc1ccc([N+](=O)[O-])c2c(NCCCN(C)CCCNc3c4ccccc4nc4c(C)ccc([N+](=O)[O-])c34)c3ccccc3nc12 | > 16 µg/mL | 8 µg/mL | – | – | > 16 µg/mL | – | 8 µg/mL (≈ 13 µM) | – | – | – | > 16 µg/mL | – | >=1 | – | > 16 µg/mL | – | – |
| Nc1cccc2nc3ccccc3c(NCCO)c12 | > 64 µg/mL | > 64 µg/mL | – | – | > 64 µg/mL | – | – | – | – | – | > 64 µg/mL | – | – | – | > 64 µg/mL | – | – |
| Cc1ccc([N+](=O)[O-])c2c(NCCOC(=O)CCCCC(=O)OCCNc3c4ccccc4nc4c(C)ccc([N+](=O)[O-])c34)c3ccccc3nc12 | > 32 µg/mL | > 32 µg/mL | – | – | > 32 µg/mL | – | – | – | – | – | > 32 µg/mL | – | – | – | > 32 µg/mL | – | – |
| Cc1ccc([N+](=O)[O-])c2c(NCCCNC(=O)[C@@H](N)CCCCN)c3ccccc3nc12 | 32 µg/mL | 32 µg/mL | > 64 µg/mL | > 64 µg/mL | 64 µg/mL | > 64 µg/mL | 32 µg/mL (≈ 73 µM) | – | > 64 µg/mL | Active | > 64 µg/mL | > 64 µg/mL | >=1 | – | > 64 µg/mL | > 64 µg/mL | growth inhibition (GI) [23]: inactive; growth inhibition (GI) [24]: 100% |
| NCCCC[C@H](N)C(=O)NCCCNc1c2ccccc2nc2cccc([N+](=O)[O-])c12 | 8 µg/mL | 16 µg/mL | 16 µg/mL | 16 µg/mL | 64 µg/mL | 32 µg/mL | 16 µg/mL (≈ 37.7 µM) | Active | 64 µg/mL | Active | 32 µg/mL | 64 µg/mL | >=1 | > 128 µg/mL | 32 µg/mL | 32 µg/mL | growth inhibition (GI) [20]: Active; MFC [22]: > 128 µg/mL; growth inhibition (GI) [23]: Active; inhibition [1]: Active; growth inhibition (GI) [24]: Active; MFC [10]: 16 µg/mL (≈ 37.7 µM) |
| Cc1ccc(N)c2c(NCCO)c3ccccc3nc12 | > 64 µg/mL | 64 µg/mL | – | – | 64 µg/mL | – | – | – | – | – | 64 µg/mL | – | – | – | 64 µg/mL | – | – |
| O=C(CCCCC(=O)OCCNc1c2ccccc2nc2cccc([N+](=O)[O-])c12)OCCNc1c2ccccc2nc2cccc([N+](=O)[O-])c12 | > 16 µg/mL | > 16 µg/mL | – | – | > 16 µg/mL | – | – | – | – | – | > 16 µg/mL | – | – | – | > 16 µg/mL | – | – |
| COc1cc([C@@H]2c3cc4c(cc3[C@@H](O[C@@H]3O[C@@H]5CO[C@@H](C)O[C@H]5[C@H](O)[C@H]3O)[C@H]3COC(=O)[C@H]23)OCO4)cc(OC)c1O [ETOPOSIDE] | – | – | – | – | – | – | – | – | – | – | – | – | – | – | – | – | MIC [27]: 50 µg/mL (≈ 85 µM) |
| O=[N+]([O-])c1cccc2nc3ccccc3c(NCCNCCNCCNc3c4ccccc4nc4cccc([N+](=O)[O-])c34)c12 | 64 µg/mL | 8 µg/mL | > 64 µg/mL | > 64 µg/mL | 32 µg/mL | > 64 µg/mL | 16 µg/mL (≈ 27.1 µM) | Active | > 64 µg/mL | – | 32 µg/mL | > 64 µg/mL | >=1 | 32 µg/mL (≈ 54.2 µM) | 32 µg/mL | > 64 µg/mL | growth inhibition (GI) [20]: Active; MFC [5]: 32 µg/mL (≈ 54.2 µM); growth inhibition (GI) [23]: inactive; inhibition [1]: Active; growth inhibition (GI) [24]: 100% |

Source: ChEMBL document CHEMBL4715897, “A new 1-nitro-9-aminoacridine derivative targeting yeast topoisomerase II able to overcome fluconazole-resistance” (2021)
